From US9113629B2, “4-amino-6-(4-substituted-phenyl)-picolinates and 6-amino-2-(4-substituted-phenyl)-pyrimidine-4-carboxylates and their use as herbicides” (DOW AGROSCIENCES LLC, priority 2013, dated 2015)

Tested on: Key Broadleaf Weed and Crop Species
Experiment: Post-emergent Test II herbicidal activity (Table 5)
Assay type: in vivo
Conditions: post-emergence, 336 h; ABUTH: velvetleaf (Abutilon theophrasti); application rate 70 g ai/ha; 14 days after application; read-out: Visual Growth Reduction (%) 14 Days After Application, ABUTH
Summary of the method: (§1)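 Plants grown in Metro-Mix 360 (pH 6.0–6.8) in a greenhouse (~15 h photoperiod, 23–29 °C day) to first or second true leaf stage, then sprayed with compound in acetone/DMSO/aqueous crop-oil-surfactant carrier at 187 L/ha by track sprayer. Injury visually scored 0–100% versus untreated plants after 14 d.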

Q: With `Nc1c(F)c(-c2ccc(OC(F)F)cc2)nc(C(=O)O)c1Cl` [Compound 143] as the molecule, how does the pest or weed control at 70 g/ha read?
A: The pest or weed control at 70 g/ha was 85 to 94%.

Same assay, conditions: post-emergence, 336 h; ABUTH: velvetleaf (Abutilon theophrasti); application rate 140 g ai/ha; 14 days after application; read-out: Visual Growth Reduction (%) 14 Days After Application, ABUTH

Q: With `Nc1c(F)c(-c2ccc(OC(F)F)cc2)nc(C(=O)O)c1Cl` [Compound 143] as the molecule, how does the pest or weed control at 140 g/ha read?
A: The pest or weed control at 140 g/ha was 85 to 94%.

Same assay, conditions: post-emergence, 336 h; AMARE: redroot pigweed (Amaranthus retroflexus); application rate 70 g ai/ha; 14 days after application; read-out: Visual Growth Reduction (%) 14 Days After Application, AMARE

Q: `Nc1c(F)c(-c2ccc(OC(F)F)cc2)nc(C(=O)O)c1Cl` [Compound 143] was tested. Which pest or weed control at 70 g/ha did it give?
A: The pest or weed control at 70 g/ha was 60 to 74%.

Same assay, conditions: post-emergence, 336 h; AMARE: redroot pigweed (Amaranthus retroflexus); application rate 140 g ai/ha; 14 days after application; read-out: Visual Growth Reduction (%) 14 Days After Application, AMARE

Q: With `Nc1c(F)c(-c2ccc(OC(F)F)cc2)nc(C(=O)O)c1Cl` [Compound 143] as the molecule, how does the pest or weed control at 140 g/ha read?
A: Its pest or weed control at 140 g/ha is 85 to 94%.

Same assay, conditions: post-emergence, 336 h; BRSNN: oilseed-rape, canola (Brassica napus); application rate 70 g ai/ha; 14 days after application; read-out: Visual Growth Reduction (%) 14 Days After Application, BRSNN

Q: With `Nc1c(F)c(-c2ccc(OC(F)F)cc2)nc(C(=O)O)c1Cl` [Compound 143] as the molecule, how does the pest or weed control at 70 g/ha read?
A: The pest or weed control at 70 g/ha was 60 to 74%.

Same assay, conditions: post-emergence, 336 h; BRSNN: oilseed-rape, canola (Brassica napus); application rate 140 g ai/ha; 14 days after application; read-out: Visual Growth Reduction (%) 14 Days After Application, BRSNN

Q: How did the pest or weed control at 140 g/ha turn out when `Nc1c(F)c(-c2ccc(OC(F)F)cc2)nc(C(=O)O)c1Cl` [Compound 143] was run?
A: Its pest or weed control at 140 g/ha is 85 to 94%.

Same assay, conditions: post-emergence, 336 h; CHEAL: lambsquarters (Chenopodium album); application rate 70 g ai/ha; 14 days after application; read-out: Visual Growth Reduction (%) 14 Days After Application, CHEAL

Q: For `Nc1c(F)c(-c2ccc(OC(F)F)cc2)nc(C(=O)O)c1Cl` [Compound 143], which pest or weed control at 70 g/ha is on record?
A: Its pest or weed control at 70 g/ha is 85 to 94%.

Same assay, conditions: post-emergence, 336 h; CHEAL: lambsquarters (Chenopodium album); application rate 140 g ai/ha; 14 days after application; read-out: Visual Growth Reduction (%) 14 Days After Application, CHEAL

Q: How did the pest or weed control at 140 g/ha turn out when `Nc1c(F)c(-c2ccc(OC(F)F)cc2)nc(C(=O)O)c1Cl` [Compound 143] was run?
A: Its pest or weed control at 140 g/ha is 85 to 94%.

Same assay, conditions: post-emergence, 336 h; EPHHL: wild poinsettia (Euphorbia heterophylla); application rate 70 g ai/ha; 14 days after application; read-out: Visual Growth Reduction (%) 14 Days After Application, EPHHL

Q: With `Nc1c(F)c(-c2ccc(OC(F)F)cc2)nc(C(=O)O)c1Cl` [Compound 143] as the molecule, how does the pest or weed control at 70 g/ha read?
A: Its pest or weed control at 70 g/ha is 95 to 100%.

Same assay, conditions: post-emergence, 336 h; EPHHL: wild poinsettia (Euphorbia heterophylla); application rate 140 g ai/ha; 14 days after application; read-out: Visual Growth Reduction (%) 14 Days After Application, EPHHL

Q: Which pest or weed control at 140 g/ha does the source give for `Nc1c(F)c(-c2ccc(OC(F)F)cc2)nc(C(=O)O)c1Cl` [Compound 143] here?
A: The pest or weed control at 140 g/ha was 95 to 100%.

Same assay, conditions: post-emergence, 336 h; HELAN: sunflower (Helianthus annuus); application rate 70 g ai/ha; 14 days after application; read-out: Visual Growth Reduction (%) 14 Days After Application, HELAN

Q: Which pest or weed control at 70 g/ha does the source give for `Nc1c(F)c(-c2ccc(OC(F)F)cc2)nc(C(=O)O)c1Cl` [Compound 143] here?
A: The pest or weed control at 70 g/ha was 60 to 74%.

Same assay, conditions: post-emergence, 336 h; HELAN: sunflower (Helianthus annuus); application rate 140 g ai/ha; 14 days after application; read-out: Visual Growth Reduction (%) 14 Days After Application, HELAN

Q: Which pest or weed control at 140 g/ha does the source give for `Nc1c(F)c(-c2ccc(OC(F)F)cc2)nc(C(=O)O)c1Cl` [Compound 143] here?
A: The pest or weed control at 140 g/ha was 85 to 94%.

Same assay, conditions: post-emergence, 336 h; VIOTR: wild pansy (Viola tricolor); application rate 70 g ai/ha; 14 days after application; read-out: Visual Growth Reduction (%) 14 Days After Application, VIOTR

Q: For `Nc1c(F)c(-c2ccc(OC(F)F)cc2)nc(C(=O)O)c1Cl` [Compound 143], which pest or weed control at 70 g/ha is on record?
A: Its pest or weed control at 70 g/ha is 30 to 44%.

Same assay, conditions: post-emergence, 336 h; VIOTR: wild pansy (Viola tricolor); application rate 140 g ai/ha; 14 days after application; read-out: Visual Growth Reduction (%) 14 Days After Application, VIOTR

Q: With `Nc1c(F)c(-c2ccc(OC(F)F)cc2)nc(C(=O)O)c1Cl` [Compound 143] as the molecule, how does the pest or weed control at 140 g/ha read?
A: Its pest or weed control at 140 g/ha is 30 to 44%.

Tested on: Key Grass and Sedge Weeds as well as Grass Crops
Experiment: Post-emergent Test II herbicidal activity (Table 6)
Assay type: in vivo
Conditions: post-emergence, 336 h, CYPES: yellow nutsedge (Cyperus esculentus), 70 g ai/ha, read-out: Visual Growth Reduction (%) 14 Days After Application, CYPES
Summary of the method: as §1

Q: For `Nc1c(F)c(-c2ccc(OC(F)F)cc2)nc(C(=O)O)c1Cl` [Compound 143], which pest or weed control at 70 g/ha is on record?
A: The pest or weed control at 70 g/ha was 85 to 94%.

Same assay, conditions: post-emergence, 336 h, CYPES: yellow nutsedge (Cyperus esculentus), 140 g ai/ha, read-out: Visual Growth Reduction (%) 14 Days After Application, CYPES

Q: How did the pest or weed control at 140 g/ha turn out when `Nc1c(F)c(-c2ccc(OC(F)F)cc2)nc(C(=O)O)c1Cl` [Compound 143] was run?
A: Its pest or weed control at 140 g/ha is 85 to 94%.

Same assay, conditions: post-emergence, 336 h, DIGSA: crabgrass (Digitaria sanguinalis), 70 g ai/ha, read-out: Visual Growth Reduction (%) 14 Days After Application, DIGSA

Q: How did the pest or weed control at 70 g/ha turn out when `Nc1c(F)c(-c2ccc(OC(F)F)cc2)nc(C(=O)O)c1Cl` [Compound 143] was run?
A: The pest or weed control at 70 g/ha was 75 to 84%.

Same assay, conditions: post-emergence, 336 h, DIGSA: crabgrass (Digitaria sanguinalis), 140 g ai/ha, read-out: Visual Growth Reduction (%) 14 Days After Application, DIGSA

Q: How did the pest or weed control at 140 g/ha turn out when `Nc1c(F)c(-c2ccc(OC(F)F)cc2)nc(C(=O)O)c1Cl` [Compound 143] was run?
A: The pest or weed control at 140 g/ha was 75 to 84%.

Same assay, conditions: post-emergence, 336 h, ECHCG: barnyardgrass (Echinochloa crus-galli), 70 g ai/ha, read-out: Visual Growth Reduction (%) 14 Days After Application, ECHCG

Q: `Nc1c(F)c(-c2ccc(OC(F)F)cc2)nc(C(=O)O)c1Cl` [Compound 143] was tested. Which pest or weed control at 70 g/ha did it give?
A: Its pest or weed control at 70 g/ha is 95 to 100%.

Same assay, conditions: post-emergence, 336 h, ECHCG: barnyardgrass (Echinochloa crus-galli), 140 g ai/ha, read-out: Visual Growth Reduction (%) 14 Days After Application, ECHCG

Q: For `Nc1c(F)c(-c2ccc(OC(F)F)cc2)nc(C(=O)O)c1Cl` [Compound 143], which pest or weed control at 140 g/ha is on record?
A: Its pest or weed control at 140 g/ha is 95 to 100%.

Same assay, conditions: post-emergence, 336 h, ORYSA: rice (Oryza sativa), crop, 70 g ai/ha, read-out: Visual Growth Reduction (%) 14 Days After Application, ORYSA

Q: How did the pest or weed control at 70 g/ha turn out when `Nc1c(F)c(-c2ccc(OC(F)F)cc2)nc(C(=O)O)c1Cl` [Compound 143] was run?
A: Its pest or weed control at 70 g/ha is 0 to 29%.

Same assay, conditions: post-emergence, 336 h, ORYSA: rice (Oryza sativa), crop, 140 g ai/ha, read-out: Visual Growth Reduction (%) 14 Days After Application, ORYSA

Q: How did the pest or weed control at 140 g/ha turn out when `Nc1c(F)c(-c2ccc(OC(F)F)cc2)nc(C(=O)O)c1Cl` [Compound 143] was run?
A: Its pest or weed control at 140 g/ha is 30 to 44%.

Same assay, conditions: post-emergence, 336 h, SETFA: giant foxtail (Setaria faberi), 70 g ai/ha, read-out: Visual Growth Reduction (%) 14 Days After Application, SETFA

Q: How did the pest or weed control at 70 g/ha turn out when `Nc1c(F)c(-c2ccc(OC(F)F)cc2)nc(C(=O)O)c1Cl` [Compound 143] was run?
A: The pest or weed control at 70 g/ha was 75 to 84%.

Same assay, conditions: post-emergence, 336 h, SETFA: giant foxtail (Setaria faberi), 140 g ai/ha, read-out: Visual Growth Reduction (%) 14 Days After Application, SETFA

Q: Which pest or weed control at 140 g/ha does the source give for `Nc1c(F)c(-c2ccc(OC(F)F)cc2)nc(C(=O)O)c1Cl` [Compound 143] here?
A: Its pest or weed control at 140 g/ha is 75 to 84%.

Same assay, conditions: post-emergence, 336 h, SORVU: grain sorghum (Sorghum vulgare), 70 g ai/ha, read-out: Visual Growth Reduction (%) 14 Days After Application, SORVU

Q: How did the pest or weed control at 70 g/ha turn out when `Nc1c(F)c(-c2ccc(OC(F)F)cc2)nc(C(=O)O)c1Cl` [Compound 143] was run?
A: The pest or weed control at 70 g/ha was 85 to 94%.

Same assay, conditions: post-emergence, 336 h, SORVU: grain sorghum (Sorghum vulgare), 140 g ai/ha, read-out: Visual Growth Reduction (%) 14 Days After Application, SORVU

Q: With `Nc1c(F)c(-c2ccc(OC(F)F)cc2)nc(C(=O)O)c1Cl` [Compound 143] as the molecule, how does the pest or weed control at 140 g/ha read?
A: Its pest or weed control at 140 g/ha is 85 to 94%.

Same assay, conditions: post-emergence, 336 h, TRZSS (wheat, Triticum aestivum), crop, 70 g ai/ha, read-out: Visual Growth Reduction (%) 14 Days After Application, TRZSS

Q: With `Nc1c(F)c(-c2ccc(OC(F)F)cc2)nc(C(=O)O)c1Cl` [Compound 143] as the molecule, how does the pest or weed control at 70 g/ha read?
A: Its pest or weed control at 70 g/ha is 45 to 59%.

Same assay, conditions: post-emergence, 336 h, TRZSS (wheat, Triticum aestivum), crop, 140 g ai/ha, read-out: Visual Growth Reduction (%) 14 Days After Application, TRZSS

Q: `Nc1c(F)c(-c2ccc(OC(F)F)cc2)nc(C(=O)O)c1Cl` [Compound 143] was tested. Which pest or weed control at 140 g/ha did it give?
A: The pest or weed control at 140 g/ha was 60 to 74%.

Same assay, conditions: post-emergence, 336 h, ZEAMX: maize, corn (Zea mays), crop, 70 g ai/ha, read-out: Visual Growth Reduction (%) 14 Days After Application, ZEAMX

Q: With `Nc1c(F)c(-c2ccc(OC(F)F)cc2)nc(C(=O)O)c1Cl` [Compound 143] as the molecule, how does the pest or weed control at 70 g/ha read?
A: The pest or weed control at 70 g/ha was 85 to 94%.

Same assay, conditions: post-emergence, 336 h, ZEAMX: maize, corn (Zea mays), crop, 140 g ai/ha, read-out: Visual Growth Reduction (%) 14 Days After Application, ZEAMX

Q: With `Nc1c(F)c(-c2ccc(OC(F)F)cc2)nc(C(=O)O)c1Cl` [Compound 143] as the molecule, how does the pest or weed control at 140 g/ha read?
A: The pest or weed control at 140 g/ha was 85 to 94%.
